In brackets after ≈: the same amount, converted by molar mass. Like-named read-outs stand apart in the source and are kept apart here. Values belong to the compound of their own block, whether it stands above or below them.
How the values were obtained:
Type in all cases: cell-based
[1] = system: Candida albicans (American Type Culture Collection strain 44506); test: Broth dilution assay (MIC); settings: read-out: Minimum Inhibitory Concentration (MIC)
Experimental: (§1) The antifungal activity of neopeltolide against Candida albicans (American Type Culture Collection strain 44506) was determined through the use of both agar diffusion and broth dilution assays.
Broth dilution assays were performed as standard 96-well microtiter assays in a total volume of 50 μl with a seeding density of 10^3 cells/ml. The concentration range for neopeltolide ranged from 5 to 0.4 μg/ml as two-fold dilutions.

[2] = system: A549 human lung adenocarcinoma; test: In vitro proliferation of A549 tumor cells (MTT); settings: 72-h exposure
Experimental: (§2) Neopeltolide was analyzed as to its effect on the proliferation of A549 human lung adenocarcinoma, NCI-ADR-RES (Formerly MCF-7/ADR) human breast cancer and P388 murine leukemia cell lines. P388 cells were obtained from Dr. R. Camalier, National Cancer Institute, Bethesda, Md., and A549 and NCI-ADR-RES cells were obtained from American Type Culture Collection, Rockville, Md.
(§3) All cell lines are maintained in Roswell Park Memorial Institute (RPMI) medium 1640 supplemented with 100 U/mL penicillin 100 μg/ml streptomycin, 60 μg/ml L-glutamine, 18 mM HEPES, 0.05 mg/mL gentamycin and 10% fetal bovine serum. […]
(§4) A volume of 75 μl of warm growth media containing 5 mg/ml MTT is added to each well, cultures returned to the incubator, and left undisturbed for 3 hours. To spectrophotometrically quantitate formation of reduced formazan, plates are centrifuged (900×g, 5 minutes), culture fluids removed by aspiration, and 200 μl of acidified isopropanol (2 ml concentrated HC/liter isopropanol) added per well. The absorbance of the resulting solutions is measured at 570 nm with a plate reader (Spectra II Tecan Laboratories). […]
(§5) The two standard drug controls (indicated above) are included in each assay to monitor the drug sensitivity of each of the cell lines and IC50 values are determined for each drug-cell combination.

[3] = system: NCI-ADR-RES (Formerly MCF-7/ADR) human breast cancer; test: In vitro proliferation of NCI-ADR-RES tumor cells (MTT); settings: 72-h exposure, read-out: NCIADR-RES IC50
Experimental: as §2, §3, §4, §5

P388 murine leukemia = test: In vitro proliferation of P388 tumor cells (MTT); settings: Mus musculus, 48-hr exposure
Experimental: as §2, §3, §4, §5

[4] = system: Candida albicans (American Type Culture Collection strain 44506); test: Agar (disk) diffusion assay
Experimental: as §1
Agar diffusion assays were performed using Sabouraud Dextrose agar plates seeded with the test microbe at 10^5/ml. Disks (6.35 mm, Schliecher and Schuell) were impregnated with 25 μg of neopeltolide, allowed to dry and then placed on the agar surface. After incubation at 37° C. for 24 hours the zones of growth inhibition were determined. A control disk containing 100 IU nystatin was run on the same plate as the neopeltolide: the zone of inhibition was 28 mm.

MIC ([1]; C. albicans, 96-well broth dilution, 37° C., 24 hours, complete inhibition of growth): 0.62 µg/mL (≈ 4.8 µM)
Structure (SMILES): Nc1nc(=O)[nH]cc1F [5-fluorocytosine, reference compound]

Structure (SMILES): CCCC1CC(OC)CC(C)CC2CC(OC(=O)/C=C\CCc3coc(/C=C\CNC(=O)OC)n3)CC(CC(=O)O1)O2 (stereo not shown) [Neopeltolide (I), Neopeltolide]
IC50 [2]: 1.17 nM | IC50 [3]: 5.1 nM | IC50 (P388 murine leukemia): 0.56 nM | zone of inhibition at 25 µg/disc ([4]; Candida albicans, 24 h, read-out: growth inhibitory zone): 17 mm | MIC ([1]; 24 h): 0.625 µg/mL (≈ 1.06 µM)

Structure (SMILES): C[C@@H]1[C@H](O)[C@@H](C)/C=C/C=C/CC/C=C/C=C/C=C/C=C/C(O[C@H]2O[C@H](C)[C@@H](O)[C@H](N)[C@@H]2O)CC2O[C@](O)(CC(O)C(O)CCC(O)CC(O)CC(O)CC(=O)O[C@H]1C)CC(O)C2C(=O)O (stereo partly shown) [nystatin, reference compound]
zone of inhibition ([4]; control disk containing 100 IU, C. albicans, 37° C., 24 hours): 28 mm
